For two molecules, GI50 results are on record in patent US10273240B2, “Cortistatin analogues, syntheses, and uses thereof” (President and Fellows of Harvard College, priority 2015, dated 2019).

Holding throughout (format): cell-based
One experiment concerns TF-1. The experiment can be described thus: Cell growth assay, TF-1. The settings on record: Homo sapiens, TF-1, 72 h, read-out: Mean GI50 (nM), TF-1. The protocol:
(§1) Cell Culture. All media was supplemented with 100 U/mL penicillin and 100 μg/mL streptomycin. Human cancer cell lines were grown in the following media: MV4; 11, RS4; 11, K562, HEL, MOLM-14, MEG-01 in RPMI-1640, 10% FBS; SET-2 in RPMI-1640, 20% FBS; UKE-1 in RPMI-1640, 10% FBS, 10% horse serum and 1 μM hydrocortisone; SKNO-1 and TF-1 in RPMI-1640, 10% FBS, and 10 or 2 ng/mL GM-CSF, respectively; HaCaT in DMEM, 10% FBS; and HCT116 in McCoy's 5 A, 10% FBS (proliferation assay) or DMEM, 10% FBS (gene expression study). HepG2, MV4;11, RS4;11, MEG-01, TF-1, HCT116 and K562 were from ATCC. SKNO-1 was from DSMZ. HEL, UKE-1, and SET-2 were provided by Ross L. Levine and HaCaT, MV4;11-mCLP, and MOLM-14 by Van Wilson, Andrew L. Kung, and Scott A. Armstrong, respectively. MOLM-14 cells were authenticated by STR profiling and flow cytometry and all cell lines were routinely tested and found to be negative for mycoplasma.

The subject of a further experiment is MV4;11. Kind of experiment: Cell growth assay, MV4;11. The note with it: Homo sapiens. The protocol:
(§2) All media was supplemented with 100 U/mL penicillin and 100 μg/mL streptomycin. Human cancer cell lines were grown in the following media: MV4; 11, K562, MOLM-14 in RPMI-1640, 10% FBS; SKNO-1 in RPMI-1640, 10% FBS, and 10 ng/mL GM-CSF; MV4;11 and K562 were from ATCC. SKNO-1 was from DSMZ.
as §1

A further experiment deals with MOLM-14. The experiment can be described thus: Cell growth assay, MOLM-14. The note with it: Homo sapiens. The protocol: as §2, §1
Another experiment concerns SET-2. Kind of experiment: Cell growth assay, SET-2. The settings on record: Homo sapiens, SET-2, 72 h, read-out: Mean GI50 (nM), SET-2. The protocol: as §1
A further experiment has as its system MEG-01. Kind of experiment: Cell growth assay, MEG-01. The note with it: Homo sapiens, MEG-01, 72 h, read-out: Mean GI50 (nM), MEG-01. The method, then: as §1
For another experiment, the system named is HEL. Kind of experiment: Cell growth assay, HEL. The settings on record: Homo sapiens, 72 h, read-out: Mean GI50 (nM), HEL. The protocol:
as §1

A further experiment relates to K562. Kind of experiment: Cell growth assay, K562. The note with it: Homo sapiens. The method, then: as §2, §1
A further experiment has as its system RS4;11. The experiment can be described thus: Cell growth assay, RS4;11. The note with it: Homo sapiens, RS4-11, 72 h, read-out: Mean GI50 (nM), RS4;11. The method, then:
as §1

Another experiment concerns SKNO-1. The experiment can be described thus: Cell growth assay, SKNO-1. The note with it: Homo sapiens. The protocol: as §2, §1

SMILES strings stand for the structures. Like-named read-outs stand apart in the source and are kept apart here. Bounds are passed on as bounds.

Consider `COc1cc2c(cc1-c1c(C)noc1C)ncc1[nH]c(=O)n([C@H](C)c3ccccn3)c12` [I-BET151], for which the GI50 was found to be 163 nM with TF-1; 20 nM in the experiment on MV4;11 (MV4-11, 72 h, I-BET151, after 3 days, read-out: Mean GI50 (nM), MV4;11); 18 nM with MOLM-14 (MOLM-14, 72 h, I-BET151, after 3 days, read-out: Mean GI50 (nM), MOLM-14); 245 nM in the experiment on SET-2; 375 nM with MEG-01; 200 nM with HEL. Besides, the GI50 came to 750 nM with K562 (K562, 72 h, I-BET151, after 3 days, read-out: Mean GI50 (nM), K562); 200 nM in the experiment on RS4;11; 50 nM in the experiment on SKNO-1 (SKNO-1, 72 h, I-BET151, after 3 days, read-out: Mean GI50 (nM), SKNO-1).
On to `C[C@]12CC=C3C=C4CCC(=O)NC[C@]45CC[C@]3(O5)[C@@H]1CC[C@@H]2c1ccc2ccncc2c1` [Compound 15B], for which the GI50 is 3.75 nM in the experiment with MV4;11 (MV4-11, 240 h, read-out: MV4;11 GI50 day 10); 17.5 nM with MOLM-14 (MOLM-14, 240 h, read-out: MOLM14 GI50 day 10); more than 1000 nM in the experiment on K562 (K562, 240 h, read-out: K562 GI50 day 10); 0.6 nM with SKNO-1 (SKNO-1, 240 h, read-out: SKNO-1 GI50 day 10).
